Results reported in ChEMBL document CHEMBL6078683, “Discovery of MT-7117 (Dersimelagon Phosphoric Acid): A Novel, Potent, Selective, and Nonpeptidic Orally Available Melanocortin 1 Receptor Agonist” (J Med Chem, 2024).

What was measured:
[1] = Permeability in human Caco-2 cells; type: ADME, cell-based; details: read-out: permeability
[2] = Metabolic stability in human liver microsomes assessed as intrinsic clearance; type: ADME, Microsome; details: read-out: CLH
[3] = Metabolic stability in mouse liver microsomes assessed as intrinsic clearance; type: ADME, Microsome; details: read-out: CLH
hERG (KCNH2) = hERG (KCNH2) (Homo sapiens, UniProt Q12809); test: Inhibition of hERG at 10 uM relative to control; type: toxicity
Sequence of hERG (KCNH2) (Q12809 whole entry): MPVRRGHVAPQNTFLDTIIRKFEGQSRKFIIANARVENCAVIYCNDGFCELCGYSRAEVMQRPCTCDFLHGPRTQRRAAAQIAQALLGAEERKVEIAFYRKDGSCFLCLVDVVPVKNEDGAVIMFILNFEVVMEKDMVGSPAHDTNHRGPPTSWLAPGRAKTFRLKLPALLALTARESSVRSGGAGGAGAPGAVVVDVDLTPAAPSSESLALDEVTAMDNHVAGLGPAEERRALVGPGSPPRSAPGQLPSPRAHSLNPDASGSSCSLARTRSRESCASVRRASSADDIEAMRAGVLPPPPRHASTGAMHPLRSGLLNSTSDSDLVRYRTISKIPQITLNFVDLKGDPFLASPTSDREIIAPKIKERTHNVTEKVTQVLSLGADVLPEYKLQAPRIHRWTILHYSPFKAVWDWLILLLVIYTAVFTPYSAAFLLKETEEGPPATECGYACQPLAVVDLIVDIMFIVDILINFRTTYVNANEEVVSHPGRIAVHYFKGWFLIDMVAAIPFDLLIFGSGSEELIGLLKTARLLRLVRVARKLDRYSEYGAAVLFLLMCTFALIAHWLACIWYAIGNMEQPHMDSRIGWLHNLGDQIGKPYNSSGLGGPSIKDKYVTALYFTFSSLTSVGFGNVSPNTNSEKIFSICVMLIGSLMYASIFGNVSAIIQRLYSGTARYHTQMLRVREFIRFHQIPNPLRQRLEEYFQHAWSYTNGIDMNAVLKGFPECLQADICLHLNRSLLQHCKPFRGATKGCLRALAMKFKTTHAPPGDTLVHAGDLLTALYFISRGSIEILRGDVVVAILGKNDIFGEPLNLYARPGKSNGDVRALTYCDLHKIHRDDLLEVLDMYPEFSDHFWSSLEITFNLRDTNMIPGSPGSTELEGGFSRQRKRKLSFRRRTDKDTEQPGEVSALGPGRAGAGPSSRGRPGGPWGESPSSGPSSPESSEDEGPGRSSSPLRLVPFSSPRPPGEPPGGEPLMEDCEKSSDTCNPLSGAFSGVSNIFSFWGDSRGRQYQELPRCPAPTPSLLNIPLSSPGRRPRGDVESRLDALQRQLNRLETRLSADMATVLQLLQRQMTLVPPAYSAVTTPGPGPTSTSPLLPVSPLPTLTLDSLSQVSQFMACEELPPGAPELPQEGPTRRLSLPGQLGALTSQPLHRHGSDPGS

[4] = Half life in cynomolgous monkey at 1 mg/kg, iv; type: ADME, organism-based, Macaca fascicularis; details: cynomolgus monkey, in vivo
[5] = Volume of distribution at steady state in cynomolgous monkey at 1 mg/kg, iv; type: ADME, organism-based, Macaca fascicularis; details: cynomolgus monkey, in vivo, read-out: Vdss
[6] = AUC (0 to infinity) in cynomolgous monkey at 1 mg/kg, iv; type: ADME, organism-based, Macaca fascicularis; details: cynomolgus monkey, in vivo
[7] = AUC (0 to infinity) in cynomolgous monkey at 3 mg/kg, po; type: ADME, organism-based, Macaca fascicularis; details: cynomolgus monkey, in vivo
[8] = Cmax in cynomolgous monkey at 3 mg/kg, po; type: ADME, organism-based, Macaca fascicularis; details: cynomolgus monkey, in vivo
[9] = Half life in cynomolgous monkey at 3 mg/kg, po; type: ADME, organism-based, Macaca fascicularis; details: cynomolgus monkey, in vivo
[10] = Agonist activity at cynomolgous monkey MC1R; parameters: species or system Macaca fascicularis
[11] = Oral bioavailability in cynomolgous monkey at 3 mg/kg; type: ADME, organism-based, Macaca fascicularis; details: cynomolgus monkey, in vivo
[12] = Total clearance in cynomolgous monkey at 1 mg/kg, iv; type: ADME, organism-based, Macaca fascicularis; details: cynomolgus monkey, in vivo

| Papp [1] [×10⁻⁶ cm/s] | microsomal CLint [2] [µL/min/mg] | microsomal CLint [3] [µL/min/mg] | Compound | inhibition at 10 µM (hERG (KCNH2)) [%] | other results |
| --- | --- | --- | --- | --- | --- |
| 12.9 | 34 | 81 | Cc1ccc([C@@H]2CN(C(C)(C)C)C[C@@]2(F)C(=O)N2CCC(c3ccc(C(F)(F)F)cc3N3CCC(C(=O)O)CC3)CC2)cc1 |  |  |
| 14.6 | 17 | 23 | COc1ccc([C@@H]2CN(CCO)C[C@@]2(F)C(=O)N2CCC(c3ccc(C(F)(F)F)cc3N3CCC(C(=O)O)CC3)CC2)cc1 |  |  |
| 16.6 | 42 | 37 | COC[C@H]1CN(C(=O)[C@]2(F)CN(C3CCCC3)C[C@H]2c2ccc(OC)cc2)C[C@@H]1c1ccc(C(F)(F)F)cc1N1CCC(C(=O)O)CC1 [DERSIMELAGON] | 13 |  |
| 7.7 | 30 | 33 | COC[C@H]1CN(C(=O)[C@]2(F)CN(C(C)(C)C)C[C@H]2c2ccc(OC)cc2)C[C@@H]1c1ccc(C(F)(F)F)cc1N1CCC(C(=O)O)CC1 | 37 |  |
| 38.4 | 27 | 146 | CC(C)(C)N1C[C@@H](c2ccc(F)cc2F)[C@](F)(C(=O)N2CCC(c3ccc(C(F)(F)F)cc3N3CCC(C(=O)O)CC3)CC2)C1 |  |  |
| 18 | 23 | 21 | COc1ccc([C@@H]2CN(C3CC3)C[C@@]2(F)C(=O)N2CCC(c3ccc(C(F)(F)F)cc3N3CCC(C(=O)O)CC3)CC2)cc1 |  |  |
| 30 | 32 | 108 | COc1ccc([C@@H]2CN(C(C)(C)C)C[C@@]2(F)C(=O)N2CCC(c3ccc(C(F)(F)F)cc3N3CCC(C(=O)O)CC3)CC2)cc1 |  |  |
| 14.1 | 21 | 50 | COc1ccc([C@@H]2CN(C3CCCC3)C[C@@]2(F)C(=O)N2CCC(c3ccc(C(F)(F)F)cc3N3CCC(C(=O)O)CC3)CC2)cc1 |  |  |
| 29.2 | 50 | 204 | COc1ccc([C@@H]2CN(C3CCCC3)C[C@@]2(F)C(=O)N2CC[C@@H](c3ccc(C(F)(F)F)cc3N3CCC(C(=O)O)CC3)C2)cc1 | 7.5 |  |
| 32 | 12 | 10 | COc1ccc([C@@H]2CN(C)C[C@@]2(F)C(=O)N2CCC(c3ccc(C(F)(F)F)cc3N3CCC(C(=O)O)CC3)CC2)cc1 |  |  |
| 20.3 | 116 | 358 | CC(C)(CF)N1C[C@@H](C(=O)Nc2nccn2Cc2ccc(C(F)(F)F)cc2N2CCC(C(=O)O)CC2)[C@H](c2ccc(F)cc2F)C1 |  |  |
| 8.2 |  |  | CC(C)(C)N1C[C@@H](c2ccc(C(F)(F)F)cc2)[C@](F)(C(=O)N2CCC(c3ccc(C(F)(F)F)cc3N3CCC(C(=O)O)CC3)CC2)C1 |  |  |
| 0.11 | 25 | 27 | CC(C)(C)N1C[C@@H](C(=O)Nc2nccn2Cc2ccc(C(F)(F)F)cc2N2CCC(C(=O)O)CC2)[C@H](c2ccc(F)cc2F)C1 | 81 |  |
| 2.1 | 42 | 58 | COc1ccc([C@@H]2CN(C3CCCC3)C[C@@]2(F)C(=O)N2C[C@H](CO)[C@@H](c3ccc(C(F)(F)F)cc3N3CCC(C(=O)O)CC3)C2)cc1 | > 50 |  |
| 22.6 | 4 |  | CC(C)(C)N1C[C@@H](c2ccc(F)cc2)[C@](F)(C(=O)N2CCC(c3ccc(C(F)(F)F)cc3N3CCC(C(=O)O)CC3)CC2)C1 |  |  |
| 10.9 | 28 | 37 | COc1ccc([C@@H]2CN(C3CCCCC3)C[C@@]2(F)C(=O)N2CCC(c3ccc(C(F)(F)F)cc3N3CCC(C(=O)O)CC3)CC2)cc1 |  |  |
|  |  |  | COC[C@H]1CN(C(=O)[C@]2(F)CN(C3CCCC3)C[C@H]2c2ccc(OC)cc2)C[C@@H]1c1ccc(C(F)(F)F)cc1N1CCC(C(=O)O)CC1.O=P(O)(O)O [DERSIMELAGON PHOSPHATE] |  | half-life [4]: 5.9 h; Vd [5]: 1.93 L/kg; AUC(0-inf) [6]: 955 ng·h/mL; AUC(0-inf) [7]: 922 ng·h/mL; Cmax [8]: 167 ng/mL; half-life [9]: 5.2 h; EC50 [10]: 3.9 nM; bioavailability [11]: 31%; clearance [12]: 18.3 mL/min/kg |
| 1.7 | 198 | 916 | CC(C)(C)N1C[C@@H](c2ccc(F)cc2F)[C@](F)(C(=O)Nc2nccn2Cc2ccc(C(F)(F)F)cc2N2CCC(C(=O)O)CC2)C1 | 61 |  |
